According to article PMC7408607, “A Multiple N-Glucosylated Peptide Epitope Efficiently Detecting Antibodies in Multiple Sclerosis” (Brain Sciences, 2020):
Like-named read-outs stand apart in the source and are kept apart here. Residues, ends and D or L forms follow the SMILES beside them. *: point of attachment. NH(β-D-Glc) = OC[C@H]1O[C@@H](N*)[C@H](O)[C@@H](O)[C@@H]1O

Test system: anti-CSF114(Glc) IgG antibodies from MS patients' serum
Test: Competitive (inhibition) ELISA on plates coated with CSF114(Glc)
Type: binding, human
Conditions: for Log1/IC50 ± Std Error: Table S4, shortened peptides versus CSF114(Glc), one representative positive MS serum
Procedure: Washing steps were executed with an automatic Hydroflex microplate washer (Tecan Italia, Milano, Italy). After five washes with washing buffer containing 0.9% NaCl and 0.05% Tween 20, nonspecific binding sites were blocked with 100 μL per well fetal calf serum (FCS) buffer solution (10% in washing buffer) at room temperature for 60 min.
Antibody affinity was measured following the inhibition methods reported elsewhere. Semi-saturating sera dilution was calculated in preliminary titration curves (absorbance 0.7). Six different concentrations of each synthetic antigenic peptide probe were used as inhibitors. Then, sera samples at the selected dilution were incubated in parallel with increasing concentrations of the synthetic shortened peptide sequences (range 1 × 10^−10 to 1 × 10^−4) for 60 min at room temperature. All inhibition experiments were performed in duplicate or triplicate for each single MS patient’s serum positive to CSF114(Glc) separately. All experiments were repeated at least twice on two different working days.
After three washes, uninhibited antibodies were identified by adding 100 µL/well of alkaline phosphatase-conjugated anti-human immunoglobulin G (IgG, Sigma-Aldrich, Milano, Italy) diluted 1:8000 in washing buffer containing 10% FCS. The microplates were then incubated 3 h at room temperature and, after three washes, 100 µL of substrate solution consisting of 1 mg/mL p-nitrophenyl phosphate (Sigma-Aldrich, Milano, Italy) in 10% diethanolamine buffer (pH 9.8) were added. After approximately 30 min, the reaction was stopped with 1M NaOH solution (50 µL/well), and the absorbance was read in a multichannel ELISA reader (Tecan Sunrise, Männedorf, Switzerland) at 405 nm. The selected ELISA microplates, coating conditions, reagent dilutions, buffers, and incubation times were previously tested. The relationship between peptide concentrations and the absorbance values was represented graphically in absorbance inhibition percentage, and half-maximal response concentration values (IC50) were calculated.

[1] = Table S5, tri- and pentapeptides 9-22 and CSF114(Glc), representative MS serum (Figure 3)
[2] = Table S5, tri- and pentapeptides 9-22 and CSF114(Glc), representative MS serum (Figure 3), CI 95% in brackets, read-out: IC50(M)[CI95%]
[3] = serum MS1 (Figure S2A), one of three MS positive sera tested in parallel, read-out: IC50
[4] = serum MS3 (Figure S2C), read-out: IC50
[5] = shortened CSF114(Glc) series (Figure 2, Table S4), one representative positive MS patient's serum, inhibitor 1 × 10^−10 to 1 × 10^−4, absorbance 405 nm, non-linear regression least squares fit, read-out: IC50

| SMILES | Log1/IC50 ± StdError [1] | also measured |
| --- | --- | --- |
| CC(=O)N[C@@H](CCC(=O)O)C(=O)N[C@@H](CCCNC(=N)N)C(=O)N[C@@H](CC(=O)N[C@@H]1O[C@H](CO)[C@@H](O)[C@H](O)[C@H]1O)C(=O)NCC(=O)N[C@@H](Cc1c[nH]cn1)C(N)=O [Ac-ERN(Glc)GH-NH2(20), Ac-ERN(Glc)GH-NH2] (Ac-ERD(NH(β-D-Glc))GH-NH2) | 5.95 ± 0.112 | – |
| CC(=O)N[C@@H](CCC(=O)O)C(=O)N[C@@H](CCCNC(=N)N)C(=O)N[C@@H](CC(=O)N[C@@H]1O[C@H](CO)[C@@H](O)[C@H](O)[C@H]1O)C(=O)NCC(=O)N[C@@H](CO)C(N)=O [Ac-ERN(Glc)GS-NH2(16), Ac-ERN(Glc)GS-NH2] (Ac-ERD(NH(β-D-Glc))GS-NH2) | 5.677 ± 0.1444 | – |
| CC(=O)N[C@@H](CCC(=O)O)C(=O)N[C@@H](CCCNC(=N)N)C(=O)N[C@@H](CC(=O)N[C@@H]1O[C@H](CO)[C@@H](O)[C@H](O)[C@H]1O)C(=O)NCC(=O)N[C@H](C(N)=O)[C@@H](C)O [Ac-ERN(Glc)GT-NH2(17), Ac-ERN(Glc)GT-NH2] (Ac-ERD(NH(β-D-Glc))GT-NH2) | 6.23 ± 0.14 | – |
| CC(=O)N[C@@H](CCC(=O)O)C(=O)N[C@@H](CCCNC(=N)N)C(=O)N[C@@H](CC(=O)N[C@@H]1O[C@H](CO)[C@@H](O)[C@H](O)[C@H]1O)C(=O)N[C@@H](CCCCN)C(=O)N[C@@H](Cc1c[nH]cn1)C(N)=O [Ac-ERN(Glc)KH-NH2(21), Ac-ERN(Glc)KH-NH2] (Ac-ERD(NH(β-D-Glc))KH-NH2) | 5.98 ± 0.1482 | – |
| CC(=O)N[C@@H](CCC(=O)O)C(=O)N[C@@H](CCCNC(=N)N)C(=O)N[C@@H](CC(=O)N[C@@H]1O[C@H](CO)[C@@H](O)[C@H](O)[C@H]1O)C(=O)N[C@@H](CCCCN)C(=O)N[C@@H](CO)C(N)=O [Ac-ERN(Glc)KS-NH2(18), Ac-ERN(Glc)KS-NH2] (Ac-ERD(NH(β-D-Glc))KS-NH2) | 5.59 ± 0.19 | – |
| CC(=O)N[C@@H](CCCCN)C(=O)NCC(=O)N[C@@H](CC(=O)N[C@@H]1O[C@H](CO)[C@@H](O)[C@H](O)[C@H]1O)C(=O)N[C@@H](C)C(=O)N[C@H](C(N)=O)[C@@H](C)O [Ac-KGN(Glc)AT-NH2(22), Ac-KGN(Glc)AT-NH2] (Ac-KGD(NH(β-D-Glc))AT-NH2) | 6.22 ± 0.07 | – |
| CC(=O)N[C@@H](CC(=O)N[C@@H]1O[C@H](CO)[C@@H](O)[C@H](O)[C@H]1O)C(=O)N[C@@H](C)C(=O)N[C@H](C(N)=O)[C@@H](C)O [Ac-N(Glc)AT-NH2(15), Ac-N(Glc)AT-NH2] | 5.005 ± 0.05558 | IC50 [2]: 7e-06 M |
| CC(=O)N[C@@H](CC(=O)N[C@@H]1O[C@H](CO)[C@@H](O)[C@H](O)[C@H]1O)C(=O)NCC(=O)N[C@@H](Cc1c[nH]cn1)C(N)=O [Ac-N(Glc)GH-NH2(13), Ac-N(Glc)GH-NH2] | 5.226 ± 0.0433 | IC50 [2]: 6.94e-06 M |
| CC(=O)N[C@@H](CC(=O)N[C@@H]1O[C@H](CO)[C@@H](O)[C@H](O)[C@H]1O)C(=O)NCC(=O)N[C@@H](CO)C(N)=O [Ac-N(Glc)GS-NH2(9), Ac-N(Glc)GS-NH2] | 5.137 ± 0.063 | – |
| CC(=O)N[C@@H](CC(=O)N[C@@H]1O[C@H](CO)[C@@H](O)[C@H](O)[C@H]1O)C(=O)NCC(=O)N[C@H](C(N)=O)[C@@H](C)O [Ac-N(Glc)GT-NH2(10), Ac-N(Glc)GT-NH2] | 5.129 ± 0.1170 | – |
| CC(=O)N[C@@H](CC(=O)N[C@@H]1O[C@H](CO)[C@@H](O)[C@H](O)[C@H]1O)C(=O)N[C@@H](CCCCN)C(=O)N[C@@H](Cc1c[nH]cn1)C(N)=O [Ac-N(Glc)KH-NH2(14), Ac-N(Glc)KH-NH2] | 5.160 ± 0.01636 | – |
| CC(=O)N[C@@H](CC(=O)N[C@@H]1O[C@H](CO)[C@@H](O)[C@H](O)[C@H]1O)C(=O)N[C@@H](CCCCN)C(=O)N[C@@H](CO)C(N)=O [Ac-N(Glc)KS-NH2(11), Ac-N(Glc)KS-NH2] | 5.942 ± 0.1911 | – |
| CC(=O)N[C@@H](CC(=O)N[C@@H]1O[C@H](CO)[C@@H](O)[C@H](O)[C@H]1O)C(=O)N[C@@H](CCCCN)C(=O)N[C@H](C(N)=O)[C@@H](C)O [Ac-N(Glc)KT-NH2(12), Ac-N(Glc)KT-NH2] | 6.010 ± 0.06024 | – |
| CSCC[C@H](NC(=O)[C@H](Cc1c[nH]c2ccccc12)NC(=O)CNC(=O)[C@H](Cc1ccc(O)cc1)NC(=O)[C@@H]1CCCN1C(=O)[C@H](C)NC(=O)[C@H](CC(C)C)NC(=O)[C@H](Cc1ccccc1)NC(=O)[C@@H](NC(=O)[C@H](CO)NC(=O)[C@H](Cc1c[nH]cn1)NC(=O)CNC(=O)[C@H](CC(=O)N[C@@H]1O[C@H](CO)[C@@H](O)[C@H](O)[C@H]1O)NC(=O)[C@H](CCCNC(=N)N)NC(=O)[C@H](CCC(=O)O)NC(=O)[C@@H](NC(=O)[C@H](CCCNC(=N)N)NC(=O)[C@@H]1CCCN1C(=O)[C@@H](N)[C@@H](C)O)C(C)C)C(C)C)C(=O)N[C@H](C(=O)N[C@@H](CCCCN)C(=O)O)C(C)C [CSF114(Glc) (1), CSF114(Glc), reference compound] | 6.46 ± 0.083 | Log1/IC50 ± Std Error: 6.14 ± 0.083; IC50 [3]: 5.2e-07 M; IC50 [4]: 5.12e-09 M; IC50 [5]: 9e-09 M |
| CC(=O)N[C@@H](CC(=O)N[C@@H]1O[C@H](CO)[C@@H](O)[C@H](O)[C@H]1O)C(=O)NCCCOCCOCCOCCCNC(=O)CCC(=O)NCCCC[C@H](NC(=O)CCC(=O)NCCCOCCOCCOCCCNC(=O)[C@H](CC(=O)N[C@@H]1O[C@H](CO)[C@@H](O)[C@H](O)[C@H]1O)NC(C)=O)C(=O)NCCCC[C@H](NC(=O)[C@H](CCCCNC(=O)CCC(=O)NCCCOCCOCCOCCCNC(=O)[C@H](CC(=O)N[C@@H]1O[C@H](CO)[C@@H](O)[C@H](O)[C@H]1O)NC(C)=O)NC(=O)CCC(=O)NCCCOCCOCCOCCCNC(=O)[C@H](CC(=O)N[C@@H]1O[C@H](CO)[C@@H](O)[C@H](O)[C@H]1O)NC(C)=O)C(=O)NCCC(=O)O [N-Glc MEP (24)] | – | IC50 [3]: 2.15e-08 M; IC50 [4]: 2.15e-08 M |
| CC(=O)N[C@H](C(=O)N[C@@H](CCC(=O)O)C(=O)N[C@@H](CCCNC(=N)N)C(=O)N[C@@H](CC(=O)N[C@@H]1O[C@H](CO)[C@@H](O)[C@H](O)[C@H]1O)C(=O)NCC(=O)N[C@@H](Cc1c[nH]cn1)C(=O)N[C@@H](CO)C(=O)N[C@H](C(N)=O)C(C)C)C(C)C [[Asn7(Glc)]CSF114(4‒11) (6), [Asn^7(Glc)] CSF114(4–11)] (Ac-VERD(NH(β-D-Glc))GHSV-NH2) | – | Log1/IC50 ± Std Error: 6.2 ± 0.29 |
| CC(=O)N[C@@H](CCC(=O)O)C(=O)N[C@@H](CCCNC(=N)N)C(=O)N[C@@H](CC(=O)N[C@@H]1O[C@H](CO)[C@@H](O)[C@H](O)[C@H]1O)C(=O)NCC(=O)N[C@@H](Cc1c[nH]cn1)C(=O)N[C@@H](CO)C(N)=O [[Asn7(Glc)]CSF114(5‒10) (7), [Asn^7(Glc)] CSF114(5–10)] (Ac-ERD(NH(β-D-Glc))GHS-NH2) | – | Log1/IC50 ± Std Error: 5.4 ± 0.10; IC50 [5]: 3.5e-06 M |
| CC(=O)N[C@@H](CCCNC(=N)N)C(=O)N[C@@H](CC(=O)N[C@@H]1O[C@H](CO)[C@@H](O)[C@H](O)[C@H]1O)C(=O)NCC(=O)N[C@@H](Cc1c[nH]cn1)C(N)=O [[Asn7(Glc)]CSF114(6‒9) (8), [Asn^7(Glc)] CSF114(6–9)] (Ac-RD(NH(β-D-Glc))GH-NH2) | – | Log1/IC50 ± Std Error: 5.7 ± 0.25 |
